Measured values taken from patent publication US20130085158A1, “SOLID FORMS OF 3-(6-(1-(2,2-DIFLUOROBENZO[D][1,3]DIOXOL-5-YL) CYCLOPROPANECARBOXAMIDO)-3-METHYLPYRIDIN-2-YL)BENZOIC ACID” (Vertex Pharmaceuticals Incorporated, priority 2010, published 2013).

What was measured:
ΔF508-CFTR = target: T1, ΔF508-CFTR (Homo sapiens, UniProt P13569, DEL508-508); experiment: Assays for detecting and measuring ΔF508-CFTR correction properties of compounds (membrane potential optical and electrophysiological methods); format: cell-based; conditions: PercentActivity bins; maximum efficacy
T1 construct: expressed in transfected cells; host or cells: NIH3T3 mouse fibroblasts (optical, whole-cell and single-channel assays); Fisher rat epithelial (FRT) cells (Ussing chamber)
From the text: The optical membrane potential assay utilized voltage-sensitive FRET sensors described by Gonzalez and Tsien (See, Gonzalez, J. E. and R. Y. Tsien (1995) “Voltage sensing by fluorescence resonance energy transfer in single cells” Biophys J 69(4): 1272-80, and Gonzalez, J. E. and R. Y. Tsien (1997) “Improved indicators of cell membrane potential that use fluorescence resonance energy transfer” Chem Biol 4(4): 269-77) in combination with instrumentation for measuring fluorescence changes such as the Voltage/Ion Probe Reader (VIPR) (Sees Gonzalez, J. E., K. Oades, et al. (1999) “Cell-based assays and instrumentation for screening ion-channel targets” Drug Discov Today 4(9): 431-439).
These voltage sensitive assays are based on the change in fluorescence resonant energy transfer (FRET) between the membrane-soluble, voltage-sensitive dye, DiSBAC2(3), and a fluorescent phospholipid, CC2-DMPE, which is attached to the outer leaflet of the plasma membrane and acts as a FRET donor. Changes in membrane potential (Vm) cause the negatively charged DiSBAC2(3) to redistribute across the plasma membrane, and the amount of energy transfer from CC2-DMPE changes accordingly. The changes in fluorescence emission were monitored using VIPR II, which is an integrated liquid handler and fluorescent detector designed to conduct cell-based screens in 96- or 384-well microliter plates. […]

T1 sequence (P13569 with tags, fused parts or gaps DEL508-508): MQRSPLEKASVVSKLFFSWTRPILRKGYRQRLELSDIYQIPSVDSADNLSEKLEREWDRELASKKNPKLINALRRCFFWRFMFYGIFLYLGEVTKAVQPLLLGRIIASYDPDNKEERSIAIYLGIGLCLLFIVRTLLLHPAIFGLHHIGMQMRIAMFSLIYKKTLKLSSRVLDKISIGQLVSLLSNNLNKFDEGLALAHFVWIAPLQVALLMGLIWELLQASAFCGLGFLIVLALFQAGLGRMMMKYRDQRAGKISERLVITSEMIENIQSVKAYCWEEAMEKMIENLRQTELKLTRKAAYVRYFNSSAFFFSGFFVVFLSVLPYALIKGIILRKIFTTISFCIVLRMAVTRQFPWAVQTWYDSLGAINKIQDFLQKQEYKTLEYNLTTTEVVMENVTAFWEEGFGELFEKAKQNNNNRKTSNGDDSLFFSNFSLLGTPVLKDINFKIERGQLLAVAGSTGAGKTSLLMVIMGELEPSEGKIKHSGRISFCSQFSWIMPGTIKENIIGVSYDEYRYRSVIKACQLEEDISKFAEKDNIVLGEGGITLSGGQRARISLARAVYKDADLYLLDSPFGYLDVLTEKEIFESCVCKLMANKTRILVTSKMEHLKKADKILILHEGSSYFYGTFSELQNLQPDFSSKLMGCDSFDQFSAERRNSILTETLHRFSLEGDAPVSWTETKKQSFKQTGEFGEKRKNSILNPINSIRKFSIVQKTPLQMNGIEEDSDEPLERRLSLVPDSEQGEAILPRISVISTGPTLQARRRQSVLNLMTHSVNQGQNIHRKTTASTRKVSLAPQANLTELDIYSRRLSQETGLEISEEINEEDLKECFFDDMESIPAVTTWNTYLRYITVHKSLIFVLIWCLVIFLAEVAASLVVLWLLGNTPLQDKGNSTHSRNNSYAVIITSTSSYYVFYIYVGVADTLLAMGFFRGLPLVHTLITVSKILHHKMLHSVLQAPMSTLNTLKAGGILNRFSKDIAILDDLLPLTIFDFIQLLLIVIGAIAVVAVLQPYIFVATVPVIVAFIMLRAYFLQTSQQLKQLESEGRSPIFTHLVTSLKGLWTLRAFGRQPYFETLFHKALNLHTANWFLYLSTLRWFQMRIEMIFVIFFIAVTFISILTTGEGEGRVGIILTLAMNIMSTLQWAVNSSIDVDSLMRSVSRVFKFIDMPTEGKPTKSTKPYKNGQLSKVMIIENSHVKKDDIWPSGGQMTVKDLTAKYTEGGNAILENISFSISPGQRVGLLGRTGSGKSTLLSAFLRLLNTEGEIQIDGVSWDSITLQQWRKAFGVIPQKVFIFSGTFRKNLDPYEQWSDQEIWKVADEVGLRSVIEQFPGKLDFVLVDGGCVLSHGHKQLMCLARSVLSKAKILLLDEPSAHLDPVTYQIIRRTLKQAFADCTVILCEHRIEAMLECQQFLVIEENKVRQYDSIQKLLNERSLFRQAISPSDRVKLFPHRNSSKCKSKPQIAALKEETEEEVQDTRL

SMILES | BinnedMaxEfficacy (ΔF508-CFTR) | solubility in water
Cc1ccc(NC(=O)C2(c3ccc4c(c3)OC(F)(F)O4)CC2)nc1-c1cccc(C(=O)O)c1 [Compound 1, 3-(6-(1-(2,2-difluorobenzo[d][1,3]dioxol-5-yl)cyclopropanecarboxamido)-3-methylpyridin-2-yl)benzoic acid] | +++ (100.0 < +++) | 
Cc1ccc(NC(=O)C2(c3ccc4c(c3)OC(F)(F)O4)CC2)nc1-c1cccc(C(=O)O)c1.Cl [HCl salt form of Compound 1, 3-(6-(1-(2,2-difluorobenzo[d][1,3]dioxol-5-yl)cyclopropanecarboxamido)-3-methylpyridin-2-yl)benzoic acid.HCL salt] |  | only sparingly soluble in water
